# Laboratory results reported in patent publication US12404289B2 (Gilead Sciences, Inc., priority 2020, dated 2025).
# Where two headings read alike, the source gives them in different places.
# Legend:
# Assay type in all cases: cell-based
# [1] = test system: SARS-CoV-2; assay: SARS-CoV-2 antiviral assay (A549-hACE2, Nano luciferase); conditions: A549-hACE2 cells, SARS-CoV2-Nano, MOI 0.025, 48 h, Table 4, read-out: EC50 SARS CoV2
# [2] = test system: Respiratory syncytial virus (RSV) strain A2; assay: Hep-2 RSV2 384-well assay (EC50-HEP2-384); conditions: HEp-2 cells, RSV A2, MOI=4, 4 days
# [3] = test system: Respiratory syncytial virus recombinant with luciferase (RSV-Luc5); assay: microbe, parasite or virus in culture
# [4] = test system: Recombinant respiratory syncytial virus expressing the firefly luciferase protein (RSV-Fluc); assay: microbe, parasite or virus in culture; conditions: Table 4
# [5] = test system: Respiratory syncytial virus (RSV) strain A2; assay: RSV antiviral assay (HEp-2, 96 well); conditions: Table 3
# [6] = read-out: EC50 RSVFluc-Hep2 384, HEp-2 cells, RSV-Luc5, MOI=0.5, 3 days, 384 well, Table 3
# [7] = human respiratory syncytial virus, NHBE, 72 h, read-out: EC50 RSVFluc NHBE 96, NHBE cells, RSV-Fluc, MOI of 0.1, three days, 96 well
# [8] = Severe acute respiratory syndrome coronavirus 2, 48 h
# [9] = human respiratory syncytial virus, HEp-2, 96 h, Table 3
# [10] = human respiratory syncytial virus, HEp-2, 72 h, read-out: EC50 RSVFluc-Hep2 384, HEp-2 cells, RSV-Luc5, MOI=0.5, 3 days, 384 well, Table 3
# [11] = read-out: EC50 RSV HEP2 96, HEp-2 cells, RSV A2, MOI=4, 4 days, 96 well
# [12] = read-out: EC50 RSVFluc NHBE 96, NHBE cells, RSV-Fluc, MOI of 0.1, three days, 96 well
SMILES,EC50 [1] [nM],"EC50 [3, 6] [nM]","EC50 [4, 7] [nM]","EC50 [1, 8] [nM]","EC50 [3, 10] [nM]",further results
"CC(=O)O[C@H]1[C@@H](OC(C)=O)[C@](C#N)(c2ccc3c(N)ncnn23)O[C@@H]1COP(=O)(N[C@@H](C)C(=O)OCC1CC1)Oc1ccc(C(C)(C)C)cc1 (single isomer, unassigned) [Example 102b]",86,26,–,–,–,EC50 ([2]; Table 3): 43 nM
"CC(=O)O[C@H]1[C@@H](OC(C)=O)[C@](C#N)(c2ccc3c(N)ncnn23)O[C@@H]1COP(=O)(N[C@@H](C)C(=O)OCC(C)C)Oc1ccc(C(C)(C)C)cc1 (stereo partly drawn) [Example 137, (2R,3R,4R,5R)-2-(4-aminopyrrolo[2,1-f][1,2,4]triazin-7-yl)-5-((((4-(tert-butyl)phenoxy)(((S)-1-isobutoxy-1-oxopropan-2-yl)amino)phosphoryl)oxy)methyl)-2-cyanotetrahydrofuran-3,4-diyl Diacetate]",–,–,4.82,67.4,22.1,"EC50 [2, 9]: 31.5 nM"
"CC(=O)O[C@H]1[C@@H](OC(C)=O)[C@](C#N)(c2ccc3c(N)ncnn23)O[C@@H]1COP(=O)(N[C@@H](C)C(=O)OC1CC2(CCC2)C1)Oc1cccc2ccccc12 (single isomer, unassigned) [Example 83a]",–,–,6.98,49,32.8,"EC50 [5, 11]: 21.9 nM"
"CC(C)C(=O)O[C@H]1[C@@H](OC(=O)C(C)C)[C@](C#N)(c2ccc3c(N)ncnn23)O[C@@H]1COP(=O)(N[C@@H](C)C(=O)OC1CC2(CCC2)C1)Oc1cccc2ccccc12 (single isomer, unassigned) [Example 86b]",23.6,28.3,–,–,–,"EC50 [4, 12]: 9.46 nM; EC50 [5, 11]: 20.9 nM"
"CCC(CC)COC(=O)[C@H](C)NP(=O)(OC[C@H]1O[C@@](C#N)(c2ccc3c(N)ncnn23)[C@H](O)[C@@H]1O)Oc1ccc(C(C)(C)C)cc1 (single isomer, unassigned) [Example 13a]",–,–,5.92,181,–,"EC50 ([2]; Table 1): 91.2 nM; EC50 ([3]; human respiratory syncytial virus, HEp-2, 72 h, read-out: EC50 RSVFluc-Hep2 384, HEp-2 cells, RSV-Luc5, MOI=0.5, 3 days, 384 well, One-Glo, Table 1): 52.1 nM"
"CC(=O)O[C@H]1[C@@H](OC(C)=O)[C@](C#N)(c2ccc3c(N)ncnn23)O[C@@H]1COP(=O)(N[C@@H](C)C(=O)OC1CC2(CCC2)C1)Oc1ccccc1 (single isomer, unassigned) [Example 45a]",–,22.7,7.29,72.8,–,EC50 ([2]; Table 3): 60.4 nM
"CC(=O)O[C@H]1[C@@H](OC(C)=O)[C@](C#N)(c2ccc3c(N)ncnn23)O[C@@H]1COP(=O)(N[C@@H](C)C(=O)OC1CC(C)(C)C1)Oc1ccc(C(C)(C)C)cc1 (stereo partly drawn) [Example 96, (2R,3R,4R,5R)-2-(4-aminopyrrolo[2,1-f][1,2,4]triazin-7-yl)-5-((((4-(tert-butyl)phenoxy)(((S)-1-(3,3-dimethylcyclobutoxy)-1-oxopropan-2-yl)amino)phosphoryl)oxy)methyl)-2-cyanotetrahydrofuran-3,4-diyl Diacetate]",–,–,5.48,95.9,30.2,"EC50 [2, 9]: 39.9 nM"
"CC(=O)O[C@H]1[C@@H](OC(C)=O)[C@](C#N)(c2ccc3c(N)ncnn23)O[C@@H]1COP(=O)(N[C@@H](C)C(=O)OC1CC(C)(C)C1)Oc1ccc(C(C)(C)C)cc1 (single isomer, unassigned) [Example 96b]",276,22.5,–,–,–,"EC50 [4, 12]: 25.1 nM; EC50 ([2]; Table 3): 27.9 nM"
"CCC(CC)COC(=O)[C@H](C)NP(=O)(OC[C@H]1O[C@@](C#N)(c2ccc3c(N)ncnn23)[C@H](O)[C@@H]1O)Oc1ccc(C(C)(C)C)c2ccccc12 (single isomer, unassigned) [Example 170b]",923,843,–,–,–,–
"CCC(=O)O[C@H]1[C@@H](OC(=O)CC)[C@](C#N)(c2ccc3c(N)ncnn23)O[C@@H]1COP(=O)(N[C@@H](C)C(=O)OCC(CC)CC)Oc1ccc(C(C)(C)C)c2ccccc12 (single isomer, unassigned) [Example 172b]",–,610,–,871,–,–
"CC(=O)O[C@H]1[C@@H](OC(C)=O)[C@](C#N)(c2ccc3c(N)ncnn23)O[C@@H]1COP(=O)(N[C@@H](C)C(=O)OCC1CC1)Oc1ccc(C(C)(C)C)cc1 (single isomer, unassigned) [Example 102a]",–,8.68,8.46,155,–,"EC50 [2, 9]: 32 nM"
"CC(C)C(=O)O[C@H]1[C@@H](OC(=O)C(C)C)[C@](C#N)(c2ccc3c(N)ncnn23)O[C@@H]1COP(=O)(N[C@@H](C)C(=O)OC1CC2(CCC2)C1)Oc1ccccc1 (single isomer, unassigned) [Example 46a]",–,–,5.59,249,30.2,–
"CCC(=O)O[C@H]1[C@@H](OC(=O)CC)[C@](C#N)(c2ccc3c(N)ncnn23)O[C@@H]1COP(=O)(N[C@@H](C)C(=O)OCC(CC)CC)Oc1cccc2ccccc12 (single isomer, unassigned) [Example 79b]",27.8,–,6.33,–,45.6,"EC50 [5, 11]: 21.6 nM"
"C[C@H](NP(=O)(OC[C@H]1O[C@@](C#N)(c2ccc3c(N)ncnn23)[C@H](O)[C@@H]1O)Oc1ccccc1)C(=O)OC1CC2(CCC2)C1 (single isomer, unassigned) [Example 44a]",–,–,9.13,102,21.7,–
"C[C@H](NP(=O)(OC[C@H]1O[C@@](C#N)(c2ccc3c(N)ncnn23)[C@H](O)[C@@H]1O)Oc1ccccc1)C(=O)OC1CC2(CCC2)C1 (single isomer, unassigned) [Example 44b]",130,22.9,–,–,–,"EC50 [4, 12]: 12.4 nM"
"CC(C)C(=O)O[C@H]1[C@@H](OC(=O)C(C)C)[C@](C#N)(c2ccc3c(N)ncnn23)O[C@@H]1COP(=O)(N[C@@H](C)C(=O)OCC1CC1)Oc1ccc(C(C)(C)C)cc1 (stereo partly drawn) [Example 104b, (2R,3R,4R,5R)-2-(4-aminopyrrolo[2,1-f][1,2,4]triazin-7-yl)-5-((((4-(tert-butyl)phenoxy)(((S)-1-(cyclopropylmethoxy)-1-oxopropan-2-yl)amino)phosphoryl)oxy)methyl)-2-cyanotetrahydrofuran-3,4-diyl bis(2-methylpropanoate)]",294,–,–,–,22.8,EC50 ([2]; Table 3): 57.8 nM
"CCC(CC)COC(=O)[C@H](C)NP(=O)(OC[C@H]1O[C@@](C#N)(c2ccc3c(N)ncnn23)[C@H](OC(C)=O)[C@@H]1OC(C)=O)Oc1ccc(C(C)(C)C)c2ccccc12 (single isomer, unassigned) [Example 171a]",931,–,–,–,712,–
"CC(C)C(=O)O[C@H]1[C@@H](OC(=O)C(C)C)[C@](C#N)(c2ccc3c(=N)n(COP(=O)(O)O)cnn23)O[C@@H]1COP(=O)(N[C@@H](C)C(=O)OC1CC2(CCC2)C1)Oc1cccc2ccccc12 (stereo partly drawn) [Example 178, (2R,3R,4R,5R)-2-cyano-2-(4-imino-3-((phosphonooxy)methyl)-3,4-dihydropyrrolo[2,1-f][1,2,4]triazin-7-yl)-5-((((naphthalen-1-yloxy)(((S)-1-oxo-1-(spiro[3.3]heptan-2-yloxy)propan-2-yl)amino)phosphoryl)oxy)methyl)tetrahydrofuran-3,4-diyl bis(2-methylpropanoate)]",–,–,12.2,1370,85,–
"CC(C)C(=O)O[C@H]1[C@@H](OC(=O)C(C)C)[C@](C#N)(c2ccc3c(N)ncnn23)O[C@@H]1COP(=O)(N[C@@H](C)C(=O)OC1CC2(CCC2)C1)Oc1cccc2ccccc12 (single isomer, unassigned) [Example 86a]",109,88.2,7.93,–,–,"EC50 ([5]; human respiratory syncytial virus, HEp-2, 96 h, read-out: EC50 RSV HEP2 96, HEp-2 cells, RSV A2, MOI=4, 4 days, 96 well): 21.6 nM"
"CC(C)C(=O)O[C@H]1[C@@H](OC(=O)C(C)C)[C@](C#N)(c2ccc3c(N)ncnn23)O[C@@H]1COP(=O)(N[C@@H](C)C(=O)OC1CC2(CCC2)C1)Oc1ccccc1 (single isomer, unassigned) [Example 46b]",400,30,–,–,–,"EC50 [4, 12]: 6.63 nM"
"C[C@H](NP(=O)(OC[C@H]1O[C@@](C#N)(c2ccc3c(=N)n(COP(=O)(O)O)cnn23)[C@H](O)[C@@H]1O)Oc1cccc2ccccc12)C(=O)OC1CC2(CCC2)C1 (stereo partly drawn) [Example 177, spiro[3.3]heptan-2-yl ((((2R,3S,4R,5R)-5-cyano-3,4-dihydroxy-5-(4-imino-3-((phosphonooxy)methyl)-3,4-dihydropyrrolo[2,1-f][1,2,4]triazin-7-yl)tetrahydrofuran-2-yl)methoxy)(naphthalen-1-yloxy)phosphoryl)-L-alaninate]",–,–,16,410,17,–
"CCC(CC)COC(=O)[C@H](C)NP(=O)(OC[C@H]1O[C@@](C#N)(c2ccc3c(=N)n(COP(=O)(O)O)cnn23)[C@H](O)[C@@H]1O)Oc1ccc(C(C)(C)C)cc1 (stereo partly drawn) [Example 179, 2-ethylbutyl ((4-(tert-butyl)phenoxy)(((2R,3S,4R,5R)-5-cyano-3,4-dihydroxy-5-(4-imino-3-((phosphonooxy)methyl)-3,4-dihydropyrrolo[2,1-f][1,2,4]triazin-7-yl)tetrahydrofuran-2-yl)methoxy)phosphoryl)-L-alaninate]",–,–,7.84,850,16.8,–
